Where “and” joins values, the source holds several entries; their conditions need not be identical. Equal entries are not always repeated. Structures can show the parent of a compound that is named as a salt.
Assays:
[1] = in vivo; cited from earlier work
β-lactamases = conditions: cited from earlier work
[2] = Urinary excretion in 0 to 6 hours of penicillanic acid 1,1-dioxide in fasting volunteers following oral administration; format: in vivo, human
Experimental: Urinary excretion in 0 to 6 hours of penicillanic
acid 1,1-dioxide in fasting volunteers following
A. 60 mg of potassium penicillanate 1,1-dioxide
(corresponding to 52 mg of penicillanic acid
1,1-dioxide) in aqueous solution
B. 128 mg of VD-1825 hydrochloride (corresponding
to 49.0 mg of penicillanic acid 1,1-dioxide) in […]

[3] = human, in vivo, po
Experimental: Serum concentrations and urinary excretion of mecillinam in fasting
following oral administration of
B. 128 mg of VD-1825^x hydrochloride (corresponding to 100 mg of
pivmecillinam hydrochloride) in aqueous solution

CC(C)(C)C(=O)OCOC(=O)[C@@H]1N2C(=O)C[C@H]2S(=O)(=O)C1(C)C
Absorption from the gastro-intestinal tract on oral administration [1]: absorbed much more slowly

CC1(C)[C@H](C(=O)O)N2C(=O)[C@H](Cl)[C@H]2S1(=O)=O [6α-chloropenicillanic acid 1,1-dioxide]
β-lactamase inhibition (β-lactamases): powerful inhibitors of a wide range of β-lactamases

CC1(C)S[C@@H]2[C@H](N=CN3CCCCCC3)C(=O)N2[C@H]1C(=O)OCOC(=O)[C@@H]1N2C(=O)C[C@H]2S(=O)(=O)C1(C)C [VD-1825, 1,1-Dioxopenicillanoyloxymethyl 6-[(hexahydro-1H-azepin-1-yl)-methyleneamino]penicillanate hydrochloride]
Absorption concluded from urinary recovery of penicillanic acid 1,1-dioxide ([2]; human, in vivo, po): efficient absorption
Urinary recovery of mecillinam compared with pivmecillinam [3]: comparable to that following administration of pivmecillinam

O=C(O)[C@H]1/C(=C/CO)O[C@@H]2CC(=O)N21 [clavulanic acid]
β-lactamase inhibition (β-lactamases): β-lactamase inhibitors

CC1(C)S[C@@H]2[C@H](N=CN3CCCCCC3)C(=O)N2[C@H]1C(=O)O [mecillinam, 6-[(hexahydro-1H-azepin-1-yl)-methyleneamino]penicillanic acid]
Absorption from the gastro-intestinal tract on oral administration [1]: incompletely absorbed, when given orally

COc1cccc(OC)c1C(=O)N[C@@H]1C(=O)N2[C@@H](C(=O)O)C(C)(C)S(=O)(=O)[C@H]12 [methicillin sulphone, 1,1-dioxo-6β-(2,6-dimethoxybenzamido)penicillanic acid]
β-lactamase inhibition (β-lactamases): powerful inhibitors of a wide range of β-lactamases

CC1(C)[C@H](C(=O)O)N2C(=O)C[C@H]2S1(=O)=O [penicillanic acid 1,1-dioxide]
Absorption from the gastro-intestinal tract, cf. Table II ([2]; oral): absorbed poorly or irregularly from the gastro-intestinal tract
β-lactamase inhibition (β-lactamases): powerful inhibitors of a wide range of β-lactamases

CC1(C)[C@H](C(=O)[O-])N2C(=O)C[C@H]2S1(=O)=O.[K+] [potassium penicillanate 1,1-dioxide]
Urinary excretion of penicillanic acid 1,1-dioxide ([2]; 0 to 6 hours, individual subject, 60 mg potassium penicillanate 1,1-dioxide oral, aqueous solution, fasting, 360 min): 2.4 % of dose and 3.2 % of dose and 7.7 % of dose and 5.2 % of dose and 2.9 % of dose
Urinary excretion of penicillanic acid 1,1-dioxide, mean ([2]; 0 to 6 hours, mean, 60 mg potassium penicillanate 1,1-dioxide oral, aqueous solution, fasting): 4.3 % of dose
dose excreted at 6 h ([2]; human, in vivo, po, 60 mg, 0 to 6 hours, mean, 60 mg potassium penicillanate 1,1-dioxide oral, aqueous solution, fasting): 4.3%

CC1(C)[C@H](C(=O)O)N2C(=O)[C@@H](NC(=O)c3nc4ccccc4nc3C(=O)O)[C@H]2S1(=O)=O [quinacillin sulphone]
β-lactamase inhibition (β-lactamases): powerful inhibitors of a wide range of β-lactamases

From patent publication US4325960A, “6-Amidinopenicillanic acid derivatives including the radical of a β-lactamase inhibitor” (Leo Pharmaceutical Products Ltd. A/S (Lovens Kemiske Fabrik, priority 1979, dated 1982)
